The source of these data is US20230357253A1, “AGONISTS OF STIMULATOR OF INTERFERON GENES STING” (THE SCRIPPS RESEARCH INSTITUTE, priority 2020, published 2023).

pEC50: −log10 of the molar value.

The subject of the test is THP-1 Lucia ISG cells. Kind of test: ISRE-luciferase assay (ISG-LUC activation). The note with it: Homo sapiens, THP1-Lucia ISG, 24 hours, luciferase reporter. It counts as cell-based. Here is the method: ISRE-luciferase assay. THP-1 Lucia ISG cells were resuspended in low-serum growth media (2% FBS) at a density of 5×10^5 cells/ml and treated with test article or vehicle (DMSO). 50 μL of cells were seeded into each well of a 384-well white greiner plates and incubated for 24 hours. To evaluate expression of the luciferase reporter, 30 μl of Quanti-luc (Invivogen) detection reagent was added to each well and luminescence was read using an Envision plate reader (Perkin Elmer) set with an integration time of 0.1 seconds. For each cell type, luminescence signals for test article samples were normalized to vehicle-treated samples and reported as relative light units (RLU).
(Reporter assays use an easily measured gene product as a stand-in for the process of interest.)
For the molecule `O=C(Nc1cc(CCCOc2cc(NC(=O)c3ccc(-n4ccnc4)nn3)c(C(=O)O)cc2F)c(F)cc1C(=O)O)c1ccc(-n2ccnc2)nn1` [Compound 125], the negative-log EC50 (pEC50) (in general, the EC50 on a negative log10 scale, so that one unit is a factor of ten) is 5.30 to 6.30.

In turn, `O=C(Nc1cc(CCCOc2cc(NC(=O)c3ccc4nnnn4n3)c(C(=O)O)cc2F)c(F)cc1C(=O)O)c1ccc(-n2ccnc2)nn1` [Compound 126] gave a pEC50 of 5.30 to 6.30.

In the case of `O=C(Nc1cc(CCCCc2cc(C(=O)O)c(NC(=O)c3ccc(-n4ccnc4)nn3)cc2F)c(F)cc1C(=O)O)c1ccc(-n2ccnc2)nn1` [Compound 127], the pEC50 is 5.30 to 6.30.

For `COc1cc(C(=O)O)c(NC(=O)c2ccc(-n3ccnc3)nn2)cc1OCCc1cc(C(=O)O)c(NC(=O)c2ccc(-n3ccnc3)nn2)cc1C#N` [Compound 130], the pEC50 is 6.30 to 7.30.

As to `COC(=O)Cc1cc(F)c(CCOc2cc(NC(=O)c3ccc(-n4ccnc4)nn3)c(C(=O)OC)cc2F)cc1NC(=O)c1ccc(-n2ccnc2)nn1` [Compound 131], the pEC50 was 5.30 to 6.30.

`O=C(Nc1cc(CSCc2cc(NC(=O)c3ccc(-n4ccnc4)nn3)c(C(=O)O)cc2F)c(F)cc1C(=O)O)c1ccc(-n2ccnc2)nn1` [Compound 132] showed a pEC50 greater than 7.30.

Regarding `COc1nc(C(=O)O)c(NC(=O)c2ccc(-n3ccnc3)nn2)cc1CCCc1cc(NC(=O)c2ccc(-n3ccnc3)nn2)c(C(=O)O)cc1F` [Compound 134], the pEC50 was 6.30 to 7.30.

For the molecule `O=C(Nc1cc(CCOc2cc(C(=O)O)c(NC(=O)c3ccc(-n4ccnc4)nn3)cc2F)c(F)cc1C(=O)O)c1ccc(-n2ccnc2)nn1` [Compound 141], the pEC50 is 6.30 to 7.30.

Molecule `O=C(Nc1cc(OCCc2cc(C(=O)O)c(NC(=O)c3ccc(-n4ccnc4)nn3)cc2F)c(F)cc1C(=O)O)c1ccc(-n2ccnc2)nn1` [Compound 144] had a pEC50 of 6.30 to 7.30.

On to `COC(=O)c1cc(F)c(OCCc2c(OC)cc(NC(=O)c3ccc(-n4ccnc4)nn3)c(C(=O)OC)c2F)cc1NC(=O)c1ccc(-n2ccnc2)nn1` [Compound 150], for which the pEC50 is less than 5.30.

As to `COC(=O)c1cc(F)c(OCCc2cc(NC(=O)c3ccc(-n4ccnc4)nn3)c(C(O)C(=O)OC)cc2F)cc1NC(=O)c1ccc(-n2ccnc2)nn1` (centres unmarked) [Compound 152], the pEC50 is 5.30 to 6.30.

For `COC(=O)c1cc(F)c(COCc2cc(NC(=O)c3ccc(-n4ccnc4)nn3)c(C(=O)OC)cc2F)cc1NC(=O)c1ccc(-n2ccnc2)nn1` [Compound 155], the pEC50 was greater than 7.30.

As for `COc1cc(C(=O)O)c(NC(=O)c2ccc(-n3ccnc3)nn2)cc1OCCc1cc(C(=O)O)c(NC(=O)c2ccc(-n3ccnc3)nn2)cc1Cl` [Compound 156], the pEC50 is 6.30 to 7.30.

On to `COC(=O)c1cc(F)c(OCCc2cc(NC(=O)c3ccc(-n4ccnc4)nn3)c(C(=O)OC)cc2C#N)cc1NC(=O)c1ccc(-n2ccnc2)nn1` [Compound 157], for which the pEC50 was 5.30 to 6.30.

Take `O=C(Nc1cc(CCCc2cc(NC(=O)c3ccc(-n4ccnc4)nn3)c(C(=O)O)cc2F)c(F)cc1C(=O)O)c1ccc(-c2cn[nH]c2)nn1` [Compound 159]: the pEC50 is 6.30 to 7.30.

`N#Cc1cc(C(=O)O)c(NC(=O)c2ccc(-n3ccnc3)nn2)cc1CCOc1cc(NC(=O)c2ccc(-n3ccnc3)nn2)c(C(=O)O)cc1F` [Compound 162] gave a pEC50 of 6.30 to 7.30.

Molecule `COC(=O)c1cc(F)c(CCOc2cc(NC(=O)c3ccc(-n4ccnc4)nn3)c(C(=O)OC)cc2C#N)cc1NC(=O)c1ccc(-n2ccnc2)nn1` [Compound 163] showed a pEC50 of 5.30 to 6.30.

`O=C(Nc1cc(CCCc2cc(NC(=O)c3ccc(-n4ccnc4)nn3)c(C(=O)O)s2)c(F)cc1C(=O)O)c1ccc(-n2ccnc2)nn1` [Compound 164]: the pEC50 is 6.30 to 7.30.

As to `COC(=O)c1cc(F)c(CCCc2cc(NC(=O)c3ccc(-n4ccnc4)nn3)c(C(=O)OC)s2)cc1NC(=O)c1ccc(-n2ccnc2)nn1` [Compound 165], the pEC50 was 6.30 to 7.30.

On to `O=C(Nc1cc(OCCc2cc(C(=O)O)c(NC(=O)c3ccc(-n4ccnc4)nn3)cc2Cl)c(F)cc1C(=O)O)c1ccc(-n2ccnc2)nn1` [Compound 166], for which the pEC50 was 6.30 to 7.30.
